Results published in patent publication US4749710A, “Immunosuppressive agents” (priority 1985, dated 1988).
Where two headings read alike, the source gives them in different places.

What was measured:
Type in all cases: cell-based
cultured murine cells = experiment: Viability / viable cell recovery of cultured murine cells (trypan blue dye exclusion); conditions: immunosuppressive concentrations
Protocol: (§1) Murine cytotoxic T-lymphocytes were generated in mixed leukocyte cultures by known methods. Specifically, single cell suspensions were prepared from spleens by gentle disruption in balanced salt solution (Hanks' balanced salt solution supplemented to 10%, v/v, with fetal bovine serum). After sedimentation on ice to remove particulate debris, cell suspensions were centrifuged at 400xg and were resuspended in fresh balanced salt solution. Cells to be used as stimulator cells were precluded from proliferating or generating cytotoxic T-lymphocytes by exposure to 1000 rads of gamma irradiation using a ^137 cesium source. […] Unless otherwise indicated, mixed leukocyte cultures were incubated at 37° C. for 6 days in a humidified atmosphere of 5% CO2 in air. The murine cytotoxic T-lymphocyte assay was conducted as follows. […] Cell pellets were resuspended in tissue culture medium and viable cells were enumerated by microscopy after exposure to trypan blue. Percent viability was calculated according to the formula: [formula] During the mixed leukocyte culture phase of the murine tests, three each of medium control and vehicle control cultures were included; each being assayed separately for cell viability and CTL activity. Unless otherwise indicated, single cultures were used to test for the effect of a particular concentration of any Vitamin D derivative. Moreover, cell viability was generally assessed only from control cultures; the resultant mean values being used to prepare desired viable effector cell concentrations from all cultures. The results for control cultures are expressed as the mean from replicate mixed leukocyte cultures±standard deviation thus establishing the between-culture variability inherent to any particular experiment. That changes in CTL activity were compound-induced was evidenced by dose-dependent changes in CTL activity measured from single cultures which exceeded the variability of the test system. […] The data shown in Table II below address this point. […] | ^b The viability of cells from each culture was determined by trypan

[1] = as above; conditions: mouse, trypan blue exclusion
Protocol: as §1

[2] = tested on: murine cytotoxic T-lymphocyte responses; experiment: cells; conditions: for CTL activity (% specific ^51 Cr release): 90:1 effector to target
Text: Immunosuppressive Activity of Vitamin D compounds on cytotoxic T lymphocyte Responses-General Test Description
Cytotoxic thymus-derived lymphocytes (CTL) constitute an important aspect of immune function and, as a result, play a key role in the rejection of grafted cells, tissues and organs. It is, therefore, essential to suppress CTL generation in a clinical situation in which CTL function is antithetical to the desired outcome as, for example, in transplantation. Cytotoxic T-lymphocytes have been studied for several years by many investigators and methods to evaluate CTL responses in vitro are well established.
As described below, CTL responses as affected by Vitamin D derivatives, were studied in vitro using cells from lab animals and human volunteers. Cytotoxic T-lymphocytes were generated from responder lymphoid cells in tissue culture medium during an incubation period of 6 days by exposure to foreign stimulator cells, i.e. from a genetically disparate source. A portion of the resultant effector cells were CTL capable of killing fresh cells related to the stimulator cells employed in the 6 day culture. To detect killing of cells by CTL, fresh target cells were incubated in excess ^51 chromium (as sodium chromate) until they were extensively labelled. Since target cells will retain the internalized radioisotope as long as they are viable but release the label when they are killed, CTL activity was assessed by quantitating the chromium released from target cells after a 4 or 18 hour incubation with CTL. Immunosuppression produced by Vitamin D derivatives was gauged as the ability to inhibit CTL responses during the initial incubation period relative to control cultures to which no Vitamin D derivative was added.
Female BALB/c By and C57BL/6 mice were obtained from Jackson Laboratories and were used between 8 and 10 weeks of age. Mice were given food and water ad libitum and were kept in a 12 hour light and 12 hour dark cycle.
For murine cultures, minimal essential medium with Hank's salts was supplemented to 1 millimolar with sodium pyruvate, to 0.1 millimolar with nonessential amino acids, to 2 millimolar with 1-glutamine, to 10% (v/v) with heat-inactivated fetal bovine serum, to 50 micrograms per ml with gentamicin, and to 1000 milligrams per liter with sodium bicarbonate and was used as tissue culture medium.
Stock solutions of Vitamin D derivatives were made in argon-saturated ethanol at a final concentration of 1×10^-2 molar, were covered with argon before sealing and were stored at -20° C. in the dark. Reduced lighting conditions were always employed when working with compounds. Compounds were diluted in tissue culture medium to 1×10^-4 molar and all subsequent dilutions were done in tissue culture medium containing 1% v/v ethanol. The final dilution into culture vessels was 1:10 thus keeping the vehicle concentration constant at 0.1% while varying the concentration of compound as tabulated in the results. For purposes of control, mixed leukocyte cultures were incubated in medium only (medium control) or in medium containing a final concentration of 0.1% ethanol (vehicle control).
Murine cytotoxic T-lymphocytes were generated in mixed leukocyte cultures by known methods. Specifically, single cell suspensions were prepared from spleens by gentle disruption in balanced salt solution (Hanks' balanced salt solution supplemented to 10%, v/v, with fetal bovine serum). After sedimentation on ice to remove particulate debris, cell suspensions were centrifuged at 400xg and were resuspended in fresh balanced salt solution. Cells to be used as stimulator cells were precluded from proliferating or generating cytotoxic T-lymphocytes by exposure to 1000 rads of gamma irradiation using a ^137 cesium source. […]

Structure (SMILES): C=C1/C(=C\C=C2/CCC[C@]3(C)[C@@H]([C@H](C)/C=C/[C@H](C)C(C)(C)O)CC[C@@H]23)C[C@@H](O)C[C@@H]1O [1α,25-(OH)2 --D2, 1α,25-Dihydroxyergocalciferol]
- toxicity to cultured murine cells (in words) (cultured murine cells): not toxic to cultured murine cells
- viability at 0.0001 µM [1]: 57%
- viability at 0.001 µM [1]: 58%
- viability at 0.01 µM [1]: 57%
- viability at 0.1 µM [1]: 57%
- viability at 1 µM [1]: 57%
- suppression of murine cytotoxic T-lymphocyte responses (in words) [2]: suppress murine cytotoxic T-lymphocyte responses
- inhibition at 10 µM ([2]; Mus musculus, T-lymphocyte, Table I, 1 × 10^-5 molar, vs vehicle control, read-out: Inhibition of CTL activity (%)): 91%
- inhibition at 1 µM ([2]; Mus musculus, T-lymphocyte, Table I, 1 × 10^-6 molar, vs vehicle control, read-out: Inhibition of CTL activity (%)): 63%
- inhibition at 0.1 µM ([2]; Mus musculus, T-lymphocyte, Table I, 1 × 10^-7 molar, vs vehicle control, read-out: Inhibition of CTL activity (%)): 48%
- inhibition at 0.01 µM ([2]; Mus musculus, T-lymphocyte, Table I, 1 × 10^-8 molar, vs vehicle control, read-out: Inhibition of CTL activity (%)): 40%
- inhibition at 0.001 µM ([2]; Mus musculus, T-lymphocyte, Table I, 1 × 10^-9 molar, vs vehicle control, read-out: Inhibition of CTL activity (%)): 20%
- inhibition at 0.0001 µM ([2]; Mus musculus, T-lymphocyte, Table I, 1 × 10^-10 molar, vs vehicle control, read-out: Inhibition of CTL activity (%)): 3%
- inhibition at 1 µM ([2]; Mus musculus, T-lymphocyte, Table II, 1 × 10^-6 molar, vs vehicle, read-out: Inhibition of CTL activity (%)): 56%
- inhibition at 0.1 µM ([2]; Mus musculus, T-lymphocyte, Table II, 1 × 10^-7 molar, vs vehicle, read-out: Inhibition of CTL activity (%)): 56%
- inhibition at 0.01 µM ([2]; Mus musculus, T-lymphocyte, Table II, 1 × 10^-8 molar, vs vehicle, read-out: Inhibition of CTL activity (%)): 37%
- inhibition at 0.001 µM ([2]; Mus musculus, T-lymphocyte, Table II, 1 × 10^-9 molar, vs vehicle, read-out: Inhibition of CTL activity (%)): 20%
- inhibition at 0.0001 µM ([2]; Mus musculus, T-lymphocyte, Table II, 1 × 10^-10 molar, vs vehicle, read-out: Inhibition of CTL activity (%)): 20%
- CTL activity (% specific ^51 Cr release) ([2]; Table I, 1 × 10^-5 molar): 5 % specific ^51 Cr release
- CTL activity (% specific ^51 Cr release) ([2]; Table I, 1 × 10^-6 molar): 20 % specific ^51 Cr release
- CTL activity (% specific ^51 Cr release) ([2]; Table I, 1 × 10^-7 molar): 28 % specific ^51 Cr release
- CTL activity (% specific ^51 Cr release) ([2]; Table I, 1 × 10^-8 molar): 32 % specific ^51 Cr release
- CTL activity (% specific ^51 Cr release) ([2]; Table I, 1 × 10^-9 molar): 43 % specific ^51 Cr release
- CTL activity (% specific ^51 Cr release) ([2]; Table I, 1 × 10^-10 molar): 52 % specific ^51 Cr release
- CTL activity (% specific ^51 Cr release) ([2]; Table II, 1 × 10^-6 molar): 21 % specific ^51 Cr release
- CTL activity (% specific ^51 Cr release) ([2]; Table II, 1 × 10^-7 molar): 21 % specific ^51 Cr release
- CTL activity (% specific ^51 Cr release) ([2]; Table II, 1 × 10^-8 molar): 30 % specific ^51 Cr release
- CTL activity (% specific ^51 Cr release) ([2]; Table II, 1 × 10^-9 molar): 38 % specific ^51 Cr release
- CTL activity (% specific ^51 Cr release) ([2]; Table II, 1 × 10^-10 molar): 38 % specific ^51 Cr release
